Experimental data: patent US20100190856A1, “Novel Polyhydroxylated Compounds as Fatty Acid Synthase (FASN) Inhibitors” (UNIVERSIDAD COMPLUTENSE DE MADRID, priority 2007, published 2010)
Where “and” joins values, the source holds several entries; their conditions need not be identical. Identical values can stand only once. Entries after “also recorded” stand apart in the source; their conditions may differ. Like-named read-outs stand apart in the source and are kept apart here.

Tests used:
[1] = within 24 h, mice models; cited from earlier work
rat CPT-1 = molecular target: T1, rat CPT-1 (Rattus norvegicus, UniProt Q63704); test: Carnitine palmitoyltransferase 1 (CPT-1) assay, yeast mitochondria; assay type: biochemical; set-up: % CPT-1 activity: concentration or dose not given beside the values; settings: for % CPT-1 activity: % of DMSO control, mitochondria of P. pastoris expressing rat CPT-1
T1 construct: made in house; host or cells: Pichia pastoris GS115 (isolated intact mitochondria)
T1 sequence (Q63704 1-772): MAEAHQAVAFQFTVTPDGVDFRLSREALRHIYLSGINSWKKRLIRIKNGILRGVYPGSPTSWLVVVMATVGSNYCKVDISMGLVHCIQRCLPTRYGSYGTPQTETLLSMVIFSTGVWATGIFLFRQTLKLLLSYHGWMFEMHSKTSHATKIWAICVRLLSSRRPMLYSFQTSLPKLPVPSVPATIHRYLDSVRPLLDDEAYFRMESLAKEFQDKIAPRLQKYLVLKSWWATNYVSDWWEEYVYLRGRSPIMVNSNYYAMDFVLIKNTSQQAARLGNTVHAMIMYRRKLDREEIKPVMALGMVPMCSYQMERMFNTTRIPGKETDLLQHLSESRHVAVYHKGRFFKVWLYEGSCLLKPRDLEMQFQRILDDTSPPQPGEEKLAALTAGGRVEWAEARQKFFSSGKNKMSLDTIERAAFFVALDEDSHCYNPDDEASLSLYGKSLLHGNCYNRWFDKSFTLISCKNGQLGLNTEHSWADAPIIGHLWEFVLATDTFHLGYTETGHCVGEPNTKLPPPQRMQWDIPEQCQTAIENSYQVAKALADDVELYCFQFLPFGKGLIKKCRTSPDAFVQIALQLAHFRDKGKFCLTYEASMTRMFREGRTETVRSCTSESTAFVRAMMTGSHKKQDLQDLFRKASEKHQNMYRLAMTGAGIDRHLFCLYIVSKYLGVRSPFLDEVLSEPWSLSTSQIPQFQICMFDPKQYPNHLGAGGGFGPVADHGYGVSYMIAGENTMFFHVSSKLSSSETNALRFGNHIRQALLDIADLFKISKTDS
Text: The expression plasmid pRCPT-Iβ/pHW010 (provided by Gebre Woldegiorgis, Beaverton, Oreg. Published in Woldegiorgis G. et al. Biochem. Biophys. Res. Commun. 2004, 325, 660-4.) was linearized in the GAP gene promoter by digestion with AvrII and integrated into the GAPp locus of P. pastoris GS115 by electroporation. Histidine prototrophic transformants were selected on YND plates and grown on YND medium. Mitochondria were isolated by disrupting the yeast cells with glass beads as previously described.
CPT activity was assayed by the forward exchange method using L-[^3H] carnitine as previously described (Nicot, C. et al., Biochem. Biophys. Res. Comm. 2004, 325, 2745-7). In a total volume of 0.5 mL, the standard enzyme assay mixture contained 0.2 mM L-[^3H]carnitine (˜5000 dpm/nmol), 80 μM palmitoyl-CoA, 20 mM HEPES (pH 7.0), 1% fatty acid-free albumin, and 40-75 mM KCl, with or without malonyl-CoA as indicated. Reactions were initiated by addition of isolated intact yeast mitochondria. The reaction was linear up to 4 min, and all incubations were done at 30° C. for 3 min. Reactions were stopped by addition of 6% perchloric acid and were then centrifuged at 2000 rpm for 7 min. The resulting pellet was suspended in water, and the product [^3H]palmitoylcarnitine was extracted with butanol at low pH. After centrifugation at 2000 rpm for 2 min, an aliquot of the butanol phase was transferred to a vial for radioactive counting.

[2] = test system: Non-malignant fibroblasts N-1; test: MTT cytotoxicity assay, non-malignant fibroblasts N-1; assay type: cell-based; settings: for IC50: non-malignant fibroblasts, MTT, 48 h, read-out: IC50, growth inhibition, Fibroblasts; for effects in cell death / morphology changes in non-malignant cells: up to doses three-fold their cytotoxic IC50 value in tumoral cells
Procedure: (§1) MCF-7 and MDA-MB-231 breast cancer cells were obtained from the American Type Culture Collection (ATCC) and were routinely grown in Dulbecco's modified Eagle's medium (DMEM, Gibco) containing 10% fetal bovine serum (FBS, Bio-Whittaker), 1% L-glutamine, 1% sodium pyruvate, 50 U/mL penicillin and 50 μg/mL streptomycin. SK-Br3 breast cancer cells were obtained from Eucellbank (Universidad de Barcelona, Spain) and were passaged in McCoy's 5 A medium containing 10% FBS, 1% L-glutamine, 1% sodium pyruvate, 50 U/mL penicillin and 50 μg/mL streptomycin. Non-malignant fibroblasts N-1 were obtained from Eucellbank (Universidad de Barcelona, Spain) and were passaged in DMEM medium containing 10% FBS, 1% L-glutamine, 1% sodium pyruvate, 50 U/mL penicillin and 50 μg/mL streptomycin. The cells remained free of Mycoplasma and were propagated in adherent culture according to established protocols. Cells were maintained at 37° C. in a humidified atmosphere of 95% air and 5% CO2.
(§2) Drug sensitivity was determined using a standard colorimetric MTT (3-4,5-dimethylthiazol-2-yl-2,5-diphenyltetrazolium bromide) assay. Briefly, cells were plated out at a density of 7×10^3 cells/100 μL/well in 96-well microtitre plates and allowed an overnight period for attachment. Then the medium was removed and fresh medium along with various concentrations of the tested compound were added to the cultures for a period of 48 h. Following the treatment, the cells were fed with drug-free medium (100 μL/well) and 10 μL of MTT solution (5 mg/mL; Sigma, St. Louis, Mo.), and the incubation was prolonged for 3 h at 37° C. After carefully removing the supernatants, the MTT-formazan crystals formed by metabolically viable cells were dissolved in dimethyl sulphoxide (100 μL/well) and the absorbance was measured at 570 nm in a multi-well plate reader (Model Anthos Labtec 2010 1.7 reader).

[3] = test system: cancer cells overexpressing FASN; settings: cited from earlier work
[4] = rats, oral dose of 56 mg of EGCG; cited from earlier work
[5] = test system: MCF-7 breast cancer cells; test: MTT cytotoxicity assay, MCF-7 breast cancer cells; assay type: cell-based, human; settings: 48 h, read-out: IC50, growth inhibition, MCF-7
Procedure: as §1, §2

FASN = molecular target: T2, FASN (Homo sapiens, UniProt P49327); test: Fatty acid synthase activity assay in SK-Br3 cells (NADPH oxidation, particle-free supernatants); assay type: cell-based; set-up: FASN activity, % of control cells / FASN activity reduced to / reduction of FASN activity: concentration or dose not given beside the values; settings: for inhibition of FASN activity (in words): SK-Br3 cells treated 6, 12 and 24 hours; for FASN activity, % of control cells: SK-Br3 cells, 24 h exposure
T2 construct: endogenous in cells; host or cells: SK-Br3 breast cancer cells
Procedure: FASN activity of compounds a, b, e, f, h, i, k, m and q was assayed in particle-free supernatants by recording spectrophotometrically at 37° C. (Lambda Bio 20, Perkin Elmer, EUA; using UV Kinlab 2.80.02 software) the decrease of A340nm due to the oxidation of NADPH, as we previously described. After 6, 12, 24 h of exposure to the tested compound, the cells were harvested by treatment with trypsin-EDTA solution, pelleted by centrifugation, washed twice and resuspended in cold PBS. The cells were sonicated during 30 min at 4° C. (PSelecta ultrasons) and centrifuged for 15 min at 4° C. to keep supernatants particle-free. A sample was taken to measure the protein content by a BioRad assay (Bio-Rad Laboratories). One-hundred and twenty micrograms of protein were pre-incubated during 15 min at 37° C. in 0.2 M of potassium phosphate buffer, pH 7.0, for temperature equilibration. The sample was then added to the reaction mixture: 200 mM potassium phosphate buffer, pH 7.0, 1 mM EDTA (Sigma), 1 mM dithiothreitol (Sigma), 30 μM acetyl-CoA (Sigma), 0.24 mM NADPH (Sigma), in 0.3 mL reaction volume were monitored at 340 nm for 3 min to measure the background NADPH oxidation. After the addition of 50 μM of malonyl-CoA (Sigma), the reaction was assayed for additional 10 min to determine FASN-dependent oxidation of NADPH. Rates were corrected for the background rate of NADPH oxidation in the presence of acetyl-CoA. FASN activity was expressed in nmol NADPH oxidized min^−1 mg protein^−1.

[6] = test system: MDA-MB-231 breast cancer cells; test: MTT cytotoxicity assay, MDA-MB-231 breast cancer cells; assay type: cell-based, human; settings: MDA-MB-231 cells, 48 h, read-out: IC50, growth inhibition, MDA-MB-231
Procedure: as §1, §2

[7] = test system: SK-Br3 breast cancer cells; test: MTT cytotoxicity assay, SK-Br3 breast cancer cells; assay type: cell-based, human; settings: MTT, 48 h, read-out: IC50, growth inhibition, SK-Br3
Procedure: as §1, §2

[8] = Weight loss in vivo (data not shown)
[9] = Homo sapiens, MCF7, MCF-7 cells

T2 sequence (P49327 whole entry): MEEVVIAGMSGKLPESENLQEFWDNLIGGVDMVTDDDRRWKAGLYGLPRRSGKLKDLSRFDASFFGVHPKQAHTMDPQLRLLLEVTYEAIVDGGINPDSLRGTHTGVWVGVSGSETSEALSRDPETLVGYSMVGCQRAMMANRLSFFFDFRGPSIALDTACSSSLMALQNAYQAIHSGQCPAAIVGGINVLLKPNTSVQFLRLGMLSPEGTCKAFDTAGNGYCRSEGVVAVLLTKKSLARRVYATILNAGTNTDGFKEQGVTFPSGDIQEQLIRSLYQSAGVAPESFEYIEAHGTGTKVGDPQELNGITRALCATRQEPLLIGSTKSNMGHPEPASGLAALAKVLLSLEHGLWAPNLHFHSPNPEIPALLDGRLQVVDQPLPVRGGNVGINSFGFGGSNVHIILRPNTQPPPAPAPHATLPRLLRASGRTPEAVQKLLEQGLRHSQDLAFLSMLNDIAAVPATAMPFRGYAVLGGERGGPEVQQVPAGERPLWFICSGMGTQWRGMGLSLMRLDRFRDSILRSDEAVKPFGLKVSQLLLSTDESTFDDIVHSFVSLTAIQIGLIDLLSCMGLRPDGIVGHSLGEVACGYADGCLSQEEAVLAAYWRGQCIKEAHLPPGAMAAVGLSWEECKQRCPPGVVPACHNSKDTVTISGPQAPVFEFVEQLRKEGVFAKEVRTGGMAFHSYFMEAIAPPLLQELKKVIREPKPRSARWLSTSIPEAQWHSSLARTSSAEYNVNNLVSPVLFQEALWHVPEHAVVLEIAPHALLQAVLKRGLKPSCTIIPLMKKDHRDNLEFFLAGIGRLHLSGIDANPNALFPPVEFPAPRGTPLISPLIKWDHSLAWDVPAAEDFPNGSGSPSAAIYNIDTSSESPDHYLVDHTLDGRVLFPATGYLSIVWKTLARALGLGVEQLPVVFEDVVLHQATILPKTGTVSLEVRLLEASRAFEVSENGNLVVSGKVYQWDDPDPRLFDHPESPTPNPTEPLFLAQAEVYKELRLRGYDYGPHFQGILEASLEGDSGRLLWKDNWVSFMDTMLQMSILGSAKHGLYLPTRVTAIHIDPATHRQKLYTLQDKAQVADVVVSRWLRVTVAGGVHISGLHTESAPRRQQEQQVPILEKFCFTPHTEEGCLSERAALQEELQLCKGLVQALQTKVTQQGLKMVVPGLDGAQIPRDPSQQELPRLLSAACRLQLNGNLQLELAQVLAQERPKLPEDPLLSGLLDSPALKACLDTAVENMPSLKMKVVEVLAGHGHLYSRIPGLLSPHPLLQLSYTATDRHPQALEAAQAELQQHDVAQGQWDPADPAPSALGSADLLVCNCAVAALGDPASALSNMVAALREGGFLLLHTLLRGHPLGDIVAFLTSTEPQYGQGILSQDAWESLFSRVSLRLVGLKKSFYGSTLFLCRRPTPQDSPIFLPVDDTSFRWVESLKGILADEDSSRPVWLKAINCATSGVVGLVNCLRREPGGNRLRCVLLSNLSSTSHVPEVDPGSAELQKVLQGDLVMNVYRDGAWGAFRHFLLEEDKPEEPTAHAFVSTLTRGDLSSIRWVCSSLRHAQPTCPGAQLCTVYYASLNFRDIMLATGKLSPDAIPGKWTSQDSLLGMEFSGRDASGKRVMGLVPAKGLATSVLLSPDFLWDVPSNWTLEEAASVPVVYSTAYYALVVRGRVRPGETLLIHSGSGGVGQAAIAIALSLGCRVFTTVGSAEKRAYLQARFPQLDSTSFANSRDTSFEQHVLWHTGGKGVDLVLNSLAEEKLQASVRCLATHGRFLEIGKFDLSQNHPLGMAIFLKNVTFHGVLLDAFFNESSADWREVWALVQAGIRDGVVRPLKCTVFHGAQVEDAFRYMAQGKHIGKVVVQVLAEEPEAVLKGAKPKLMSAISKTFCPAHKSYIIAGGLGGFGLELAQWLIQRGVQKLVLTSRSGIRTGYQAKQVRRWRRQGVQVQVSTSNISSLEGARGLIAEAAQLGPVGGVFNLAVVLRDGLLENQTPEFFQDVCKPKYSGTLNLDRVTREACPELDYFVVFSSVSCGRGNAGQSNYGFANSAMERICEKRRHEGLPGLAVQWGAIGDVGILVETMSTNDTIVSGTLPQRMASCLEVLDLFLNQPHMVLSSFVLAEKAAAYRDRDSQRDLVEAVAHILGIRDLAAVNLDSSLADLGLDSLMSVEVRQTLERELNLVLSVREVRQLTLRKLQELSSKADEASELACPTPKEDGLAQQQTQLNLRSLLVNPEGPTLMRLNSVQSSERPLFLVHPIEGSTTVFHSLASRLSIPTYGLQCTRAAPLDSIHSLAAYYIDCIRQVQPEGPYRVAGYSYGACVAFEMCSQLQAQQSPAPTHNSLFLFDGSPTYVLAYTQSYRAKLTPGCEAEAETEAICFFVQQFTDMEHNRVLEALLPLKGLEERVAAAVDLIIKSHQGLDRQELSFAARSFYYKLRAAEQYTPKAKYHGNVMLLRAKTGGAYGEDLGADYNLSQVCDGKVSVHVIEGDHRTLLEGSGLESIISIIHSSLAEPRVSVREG

Q: What does the source list for C=C1C(=O)O[C@H](CCCCCCCC)[C@H]1C(=O)O [Compound C75, (2R,3S)-4-methylene-2-octyl-5-oxotetrahydrofuran-3-carboxylic acid, reference compound]?
A: loss of body mass [1]: up to 12%; stimulation of CPT-1 activity (in words) (rat CPT-1): stimulates CPT-1 activity

Q: What does the source list for O=C(O[C@@H]1Cc2c(O)cc(O)cc2O[C@@H]1c1cc(O)c(O)c(O)c1)c1cc(O)c(O)c(O)c1 [EGCG, (−)-epigallocatechin-3-gallate, reference compound]?
A: IC50 [2]: 125 µM; effects in cell death / morphology changes in non-malignant cells [2]: massive cell death; inhibitory ability lower than that of C75 and cerulenin [3]: 4 fold; EGCG absorbed [4]: 0.012%; IC50 ([5]; MCF-7 cells): 205 ± 7.1 µM; inhibition of FASN activity (in words) (FASN): inhibit FASN activity; also recorded: decreased in a time-dependent manner; IC50 [6]: 197 ± 15.3 µM; IC50 [7]: 150 µM and 149 µM; % CPT-1 activity (rat CPT-1): 81 ± 4%

Q: Which melting point does the source give for O=C(Oc1ccccc1OC(=O)c1cc(O)c(O)c(O)c1)c1cc(O)c(O)c(O)c1 [a, 1,2-bis[(3,4,5-trihydroxybenzoyl)oxy]benzene] here?
A: 210 °C

Q: And the IC50 [5, 9]?
A: 165 ± 8.2 µM

Q: What about the IC50 ([6]; Homo sapiens) of the same compound?
A: 163 ± 5.2 µM

Q: And the IC50 ([7]; Homo sapiens, SK-BR-3, 48 h)?
A: 126 ± 5.2 µM

Q: What does the source list for O=C(Oc1cccc(OC(=O)c2cc(O)c(O)c(O)c2)c1)c1cc(O)c(O)c(O)c1 [b, 1,3-bis[(3,4,5-trihydroxybenzoyl)oxy]benzene]?
A: melting point: 194 to 195 °C; IC50 [5, 9]: 162 ± 17.8 µM; IC50 ([6]; Homo sapiens): 173 ± 40.2 µM; IC50 ([7]; Homo sapiens, SK-BR-3, 48 h): 42 ± 7.1 µM

Q: With O=C(Oc1cc2ccccc2cc1OC(=O)c1cc(O)c(O)c(O)c1)c1cc(O)c(O)c(O)c1 [e, 2,3-bis[(3,4,5-trihydroxybenzoyl)oxy]naphthalene] as the compound, how does the melting point read?
A: 182 to 183 °C

Q: What about the IC50 [5, 9] of the same compound?
A: 89 ± 28.7 µM

Q: And the “inhibition of FASN activity (in words)” value (FASN)?
A: inhibit FASN activity; also recorded: decreased in a time-dependent manner

Q: And the “FASN activity, % of control cells” value (FASN)?
A: 69%

Q: And the “weight loss in vivo” value [8]?
A: without inducing weight loss in vivo

Q: What about the IC50 ([6]; Homo sapiens) of the same compound?
A: 136 ± 26.9 µM

Q: And the IC50 ([7]; Homo sapiens, SK-BR-3, 48 h)?
A: 76.5 ± 9.2 µM

Q: What about the “stimulation of CPT-1 activity (in words)” value (rat CPT-1) of the same compound?
A: did not stimulate CPT-1 activity

Q: What about the “% CPT-1 activity” value (rat CPT-1) of the same compound?
A: 87.91 ± 7%

Q: Which results are given for O=C(Oc1ccc(OC(=O)c2cc(O)c(O)c(O)c2)c(-c2ccccc2)c1)c1cc(O)c(O)c(O)c1 [o, 2,5-bis[(3,4,5-trihydroxybenzoyl)oxy]-1,1′-biphenyl]?
A: melting point: 114 to 116 °C; IC50 [5, 9]: 10 ± 2.8 µM; IC50 ([6]; Homo sapiens): 40 ± 2.8 µM; IC50 ([7]; Homo sapiens, SK-BR-3, 48 h): 17.5 ± 2.6 µM; stimulation of CPT-1 activity (in words) (rat CPT-1): did not; % CPT-1 activity (rat CPT-1): 86.80 ± 14%

Q: What does the source list for O=C(Oc1ccc(OC(=O)c2ccccc2)c(-c2ccccc2)c1)c1cc(O)c(O)c(O)c1 [p, 6-(benzoyloxy)-1,1′-biphenyl-3-yl 3,4,5-trihydroxybenzoate]?
A: melting point: 82 to 84 °C; IC50 ([6]; Homo sapiens): > 150 µM; IC50 ([7]; Homo sapiens, SK-BR-3, 48 h): 73.5 ± 4.9 µM

Q: For O=C(Oc1ccc(-c2ccc(OC(=O)c3cc(O)c(O)c(O)c3)cc2)cc1)c1cc(O)c(O)c(O)c1 [q, 4,4′-bis[(3,4,5-trihydroxybenzoyl)oxy]-1,1′-biphenyl], which IC50 ([2]; Fibroblast) is on record?
A: 13 ± 4 µM

Q: And the “effect on non-malignant cells / normal fibroblasts” value ([2]; at concentrations similar to IC50)?
A: not affected

Q: What about the “effects in cell death / morphology changes in non-malignant cells” value [2] of the same compound?
A: No significant effects

Q: And the IC50 [5, 9]?
A: 2.5 ± 0.1 µM

Q: And the “inhibition of FASN activity (in words)” value (FASN)?
A: inhibit FASN activity; also recorded: decreased in a time-dependent manner

Q: And the “FASN activity, % of control cells” value (FASN)?
A: 20%

Q: And the “reduction of FASN activity” value (FASN; after 24 h of cell exposure)?
A: 50%

Q: And the “weight loss in vivo” value [8]?
A: without inducing weight loss in vivo

Q: What about the IC50 ([6]; Homo sapiens) of the same compound?
A: 5.2 ± 3.5 µM

Q: What about the IC50 ([7]; Homo sapiens, SK-BR-3, 48 h) of the same compound?
A: 4 ± 1 µM

Q: And the IC50 [7]?
A: 4.4 ± 1.4 µM

Q: What about the “stimulation of CPT-1 activity (in words)” value (rat CPT-1) of the same compound?
A: did not stimulate CPT-1 activity

Q: And the “% CPT-1 activity” value (rat CPT-1)?
A: 84.38 ± 4%
